Patent publication US10513519B2, “Solid forms of (1S,4S)-4-(2-(((3S,4R)-3-fluorotetrahydro-2H-pyran-4-yl)amino)-8-((2,4,6-trichlorophenyl)amino)-9H-purin-9-yl)-1-methylcyclohexane-1-carboxamide and methods of their use” (Signal Pharmaceuticals, LLC, priority 2016, dated 2019)

Tested on: cancer cell lines
Test: Multiplexed cytotoxicity assay: cell proliferation (relative cell count IC50, GI50)
Assay type: cell-based
Conditions: Homo sapiens
Experimental: (§1) Cells are grown in RPMI1640, 10% FBS, 2 mM L-alanyl-L-Glutamine, 1 mM Na pyruvate or a special medium in a humidified atmosphere of 5% CO2 at 37° C. Cells are seeded into 384-well plates and incubated in a humidified atmosphere of 5% CO2 at 37° C. Compounds are added 24 h post cell seeding. At the same time, a time zero untreated cell plate is generated. After a 72 hour incubation period, cells are fixed and stained with fluorescently labeled antibodies and nuclear dye to allow visualization of nuclei, apoptotic cells and mitotic cells. Apoptotic cells are detected using an anti-active caspase-3 antibody. Mitotic cells are detected using an anti phospho-histone-3 antibody. Compounds are serially diluted 3.16-fold and assayed over 10 concentrations in a final assay concentration of 0.1% DMSO from the highest test concentration of 10 μM. Automated fluorescence microscopy was carried out using a Molecular Devices ImageXpress Micro XL high-content imager, and images are collected with a 4× objective.
Sixteen-bit TIFF images are acquired and analyzed with MetaXpress 5.1.0.41 software. Cell proliferation is measured by the signal intensity of the incorporated nuclear dye. The cell proliferation assay output is referred to as the relative cell count. To determine the cell proliferation end point, the cell proliferation data output is transformed to percentage of control (POC) using the following formula: POC=relative cell count(compound wells)/relative cell count(vehicle wells)×100
GI50 is the concentration needed to reduce the observed growth by half. This is the concentration that inhibits the growth to the level midway between growth in untreated cells and the number of cells seeded in the well (Time zero value). The IC50 values are calculated using nonlinear regression to fit data to a sigmoidal 4 point, 4 parameter One-Site dose response model, where: y(fit)=A+[(B−A)/(1+((C/x)^D))].
as §1, with “In another experiment, cells were grown” for “Cells are grown”, “Cells were” for “Cells are”, “Compounds were” for “Compounds are”, “plate was” for “plate is”, “cells were” for “cells are”, “images were” for “images are”
Sixteen-bit TIFF images were acquired and analyzed with MetaXpress 5.1.0.41 software. Cell proliferation was measured by the signal intensity of the incorporated nuclear dye. The cell proliferation assay output was referred to as the relative cell count. To determine the cell proliferation end point, the cell proliferation data output was transformed to percentage of control (POC) using the following formula: POC=relative cell count(compound wells)/relative cell count(vehicle wells)×100
GI50 refers to the concentration needed to reduce the observed growth by half. This corresponds to the concentration that inhibits the growth to the level midway between growth in untreated cells and the number of cells seeded in the well (Time zero value). The IC50 values were calculated using nonlinear regression to fit data to a sigmoidal 4 point, 4 parameter One-Site dose response model, where: y(fit)=A+[(B−A)/(1+((C/x)^D))].

[1] = JIYOYE, JIYOYE (Hematopoietic and lymphoid, Lymphoma)
[2] = JeKo-1, JEKO1 (Hematopoietic and lymphoid, Lymphoma)
[3] = Jurkat, JURKAT (Hematopoietic and lymphoid, Leukemia)
[4] = K562, K562 (Hematopoietic and lymphoid, Leukemia)
[5] = KATO III, 72 h, KATOIII, Stomach
[6] = KU812, KU812 (Hematopoietic and lymphoid, Leukemia)
[7] = L-428, L428 (Hematopoietic and lymphoid, Lymphoma)
[8] = MC116, MC116 (Hematopoietic and lymphoid, Lymphoma)
[9] = MC-IXC, 72 h, MCIXC, CNS, Neuroblastoma
[10] = ME-180, 72 h, ME180, Female GU, Ovary, 72 h
[11] = MEG-01, MEG01 (Hematopoietic and lymphoid, Leukemia)
[12] = MES-SA, 72 h, MESSA, Soft Tissue, Sarcoma
[13] = MG-63, 72 h, MG63, Soft Tissue, Osteosarcoma, 72 h
[14] = MHH-PREB-1, MHHPREB1 (Hematopoietic and lymphoid, Leukemia)
[15] = MIA PaCa-2, 72 h, MIAPACA2, Pancreas, 72 h
[16] = MOLT-3, MOLT3 (Hematopoietic and lymphoid, Leukemia)
[17] = MOLT-16, MOLT16 (Hematopoietic and lymphoid, Leukemia)
[18] = MV4-11, MV411 (Hematopoietic and lymphoid, Leukemia)
[19] = Malme-3M, MALME3M (Skin, Melanoma)
[20] = NALM-6, NALM6 (Hematopoietic and lymphoid, Leukemia)
[21] = NCI-H69, 72 h, NCIH69, Lung, SCLC, 72 h
[22] = NCI-H292, 72 h, NCIH292, Lung, NSCLC, 72 h
[23] = NCI-H295R, NCIH295R (Endocrine, Adrenal gland)
[24] = NCI-H441, 72 h, NCIH441, Lung, NSCLC, 72 h
[25] = NCI-H446, 72 h, NCIH446, Lung, SCLC, 72 h
[26] = NCI-H460, 72 h, NCIH460, Lung, NSCLC, 72 h
[27] = NCI-H510A, 72 h, NCIH510A, Lung, SCLC
[28] = NCI-H520, 72 h, NCIH520, Lung, NSCLC, 72 h
[29] = NCI-H596, 72 h, NCIH596, Lung, NSCLC, 72 h
[30] = NCI-H661, 72 h, NCIH661, Lung, NSCLC, 72 h
[31] = NTERA-2-cl-D1, 72 h, NTERA2CLD1, Testis, 72 h
[32] = OE19, 72 h, OE19, Head and Neck, Esophageal, 72 h
[33] = OE33, 72 h, OE33, Head and Neck, Esophageal, 72 h
[34] = OVCAR-3, 72 h, OVCAR3, Female GU, Ovary, 72 h
[35] = PANC-1, 72 h, PANC1, Pancreas, 72 h
[36] = PSN1, 72 h, PSN1, Pancreas, 72 h
[37] = RL95-2, 72 h, RL952, Female GU, Uterus, 72 h
[38] = RPMI-6666, RPMI6666 (Hematopoietic and lymphoid, Lymphoma)
[39] = RPMI-7951, RPMI7951 (Skin, Melanoma)
[40] = RPMI-8226, 72 h, RPMI8226, Hematopoietic and lymphoid, Myeloma, 72 h
[41] = RS4-11, RS411 (Hematopoietic and lymphoid, Leukemia)
[42] = Raji, RAJI (Hematopoietic and lymphoid, Lymphoma)
[43] = Rec1, REC1 (Hematopoietic and lymphoid, Lymphoma)
[44] = SAOS-2, 72 h, SAOS2, Soft Tissue, Osteosarcoma, 72 h
[45] = SHP77, 72 h, SHP77, Lung, SCLC, 72 h
[46] = SJRH30, 72 h, SJRH30, Soft Tissue, Sarcoma, 72 h
[47] = SJSA-1, 72 h, SJSA1, Soft Tissue, Osteosarcoma, 72 h
[48] = SK-LMS-1, 72 h, SKLMS1, Soft Tissue, Sarcoma, 72 h
[49] = SK-MEL3, 72 h, SKMEL3, Skin, Melanoma, 72 h
[50] = SK-MEL-1, SKMEL1 (Skin, Melanoma)
[51] = SK-MEL-28, SKMEL28 (Skin, Melanoma)
[52] = SK-MES-1, 72 h, SKMES1, Lung, NSCLC, 72 h

## C[C@]1(C(N)=O)CC[C@@H](n2c(Nc3c(Cl)cc(Cl)cc3Cl)nc3cnc(N[C@@H]4CCOC[C@H]4F)nc32)CC1 [Compound 1, cis-4-[2-{[(3S,4R)-3-fluorooxan-4-yl]amino}-8-(2,4,6-trichloroanilino)-9H-purin-9-yl]-1-methylcyclohexane-1-carboxamide]
[1]
  GI50: 81.4 nM
  IC50: 210 nM
[2]
  GI50: 461 nM
  IC50: 830 nM
[3]
  GI50: 3340 nM
  IC50: 3730 nM
[4]
  GI50: > 10000 nM
  IC50: > 10000 nM
[5]
  GI50: 61.2 nM
  IC50: 78.7 nM
[6]
  GI50: 3 nM
  IC50: 15.9 nM
[7]
  GI50: 1630 nM
  IC50: 3460 nM
LNCaP, 72 h, Prostate
  GI50: 2430 nM
  IC50: 5070 nM
LS174T, LS174T (Colon)
  GI50: 194 nM
  IC50: 259 nM
LS-123, LS123 (Colon)
  GI50: 61 nM
  IC50: 188 nM
LS-411N, LS411N (Colon)
  GI50: 35.8 nM
  IC50: 53 nM
LS-513, LS513 (Colon)
  GI50: 35.3 nM
  IC50: 38.6 nM
LS-1034, LS1034 (Colon)
  GI50: 224 nM
  IC50: 676 nM
M059J, M059J (CNS, Glioma)
  GI50: 612 nM
  IC50: 3310 nM
[8]
  GI50: 6020 nM
  IC50: 6490 nM
[9]
  GI50: 2040 nM
  IC50: 2330 nM
MCF7, MCF7 (Breast)
  GI50: 636 nM
  IC50: 3470 nM
MDA-MB-231, MDAMB231 (Breast)
  GI50: 33.9 nM
  IC50: 62.4 nM
MDA-MB-415, MDAMB415 (Breast)
  GI50: 729 nM
  IC50: > 10000 nM
MDA-MB-436, MDAMB436 (Breast)
  GI50: 262 nM
  IC50: > 10000 nM
MDA-MB-453, MDAMB453 (Breast)
  GI50: 656 nM
  IC50: 2820 nM
MDA-MB-468, MDAMB468 (Breast)
  GI50: 36.3 nM
  IC50: 72.1 nM
[10]
  GI50: > 10000 nM
  IC50: > 10000 nM
[11]
  GI50: 81.8 nM
  IC50: 221 nM
[12]
  GI50: 810 nM
  IC50: 1100 nM
[13]
  GI50: 108 nM
  IC50: 115 nM
[14]
  GI50: 6690 nM
  IC50: 6970 nM
[15]
  GI50: 35.7 nM
  IC50: 39.6 nM
[16]
  GI50: 946 nM
  IC50: 3030 nM
[17]
  GI50: 2880 nM
  IC50: 3350 nM
[18]
  GI50: 107 nM
  IC50: 184 nM
[19]
  GI50: 3.4 nM
  IC50: 12 nM
MeWo, MEWO (Skin, Melanoma)
  GI50: 102 nM
  IC50: 159 nM
[20]
  GI50: > 10000 nM
  IC50: > 10000 nM
[21]
  GI50: 5000 nM
  IC50: > 10000 nM
[22]
  GI50: 278 nM
  IC50: 686 nM
[23]
  GI50: > 10000 nM
  IC50: > 10000 nM
[24]
  GI50: 271 nM
  IC50: 1250 nM
[25]
  GI50: 327 nM
  IC50: > 10000 nM
[26]
  GI50: > 10000 nM
  IC50: > 10000 nM
NCI-H508, NCIH508 (Colon)
  GI50: 28.8 nM
  IC50: 48.1 nM
[27]
  GI50: 3700 nM
  IC50: 6610 nM
[28]
  GI50: 991 nM
  IC50: 2130 nM
[29]
  GI50: 2750 nM
  IC50: > 10000 nM
[30]
  GI50: 1440 nM
  IC50: 2640 nM
NCI-H747, NCIH747 (Colon)
  GI50: 12 nM
  IC50: 44.5 nM
[31]
  GI50: 44 nM
  IC50: 50.7 nM
[32]
  GI50: 340 nM
  IC50: > 10000 nM
[33]
  GI50: 63 nM
  IC50: 96.9 nM
[34]
  GI50: > 10000 nM
  IC50: > 10000 nM
[35]
  GI50: 41.6 nM
  IC50: 80 nM
PFSK-1, PFSK1 (CNS, Glioma)
  GI50: 23.4 nM
  IC50: > 10000 nM
[36]
  GI50: 8.3 nM
  IC50: 9.2 nM
RKOE6, RKOE6 (Colon)
  GI50: 75.3 nM
  IC50: 107 nM
[37]
  GI50: 9 nM
  IC50: 59.9 nM
[38]
  GI50: 80.1 nM
  IC50: 370 nM
[39]
  GI50: 71.6 nM
  IC50: 94.5 nM
[40]
  GI50: 1090 nM
  IC50: 2480 nM
[41]
  GI50: 359 nM
  IC50: 2960 nM
[42]
  GI50: 179 nM
  IC50: > 10000 nM
[43]
  GI50: 5.3 nM
  IC50: 193 nM
[44]
  GI50: 3570 nM
  IC50: 6880 nM
SCC-4, SCC4 (Head and Neck)
  GI50: 51.2 nM
  IC50: 108 nM
SCC-9, SCC9 (Head and Neck)
  GI50: 117 nM
  IC50: 280 nM
SCC-25, SCC25 (Head and Neck)
  GI50: 43.9 nM
  IC50: 51 nM
SCaBER, SCABER (Bladder)
  GI50: 66.5 nM
  IC50: 77.2 nM
[45]
  GI50: 4790 nM
  IC50: 5820 nM
[46]
  GI50: 219 nM
  IC50: 1470 nM
[47]
  GI50: 1160 nM
  IC50: 2460 nM
SK-BR-3, SKBR3 (Breast)
  GI50: 6810 nM
  IC50: 8450 nM
[48]
  GI50: 146 nM
  IC50: 166 nM
[49]
  GI50: 28.4 nM
  IC50: 62.5 nM
[50]
  GI50: 1 nM
  IC50: 29.1 nM
[51]
  GI50: 27.9 nM
  IC50: 57.1 nM
[52]
  GI50: 103 nM
  IC50: 122 nM
